According to patent US11779600B2, “Methods of treating or preventing alzheimer's disease and associated conditions” (CEDARS-SINAI MEDICAL CENTER, priority 2016, dated 2023):

Columns and labels:
Assay type in all cases: cell-based, mouse
[1] = tested on: bone marrow-derived macrophages (MΦ^BM); assay: Fibrillar Aβ1-42 phagocytosis assay in bone marrow-derived macrophages; conditions: 24 hours treatment, then fAβ1-42 for 30 min; quantitative ICC (FIG. 16E)
Method: Lyophilized non-fluoro amyloid-β1-42 peptide (#20276; Anaspec) was initially monomerized by dissolving it in ice-cold HFIP (hexafluoroisopropanol) (#52512; Sigma) to a final concentration of 1 mM and then aliquoted in sterile siliconized microcentrifuge tubes. The HFIP was first evaporated while in the sterile hood and then under vacuum conditions in a SpeedVac for 2 h to remove any trace of HFIP; the peptide film was stored at −20° C. until use. To induce fibril formation, fluoro (HiLyte647; #64161; Anaspec) and non-fluoro amyloid-β1-42 films were resuspended in media to which 10% of sterile NaOH 60 mM was first added and the media were vortexed for 30 s. Then, a sterile 45% H2O and a sterile 45% solution of 20 mM NaH2PO4+Na2HPO4 (pH 7.4) were added, and the media were vortexed again and incubated on a shaker for 2 weeks at 37° C. Pre-formed amyloid-β1-42 fibrils were then sonicated for 60 s and diluted to 100 nM using the same media prior to the phagocytosis assay.
To test amyloid-β phagocytosis by macrophage, in repeated experiments monocytes were isolated from the bone marrow of wild-type mice (n=18 mice) and differentiated into macro-phage by 7-day cultivation in complete RPMI-1640 medium (#21870; Life Technologies) with 10% serum and 20 ng/ml MCSF (#315-02; PeproTech). Bone marrow-derived macrophages (MΦBM) were generated from femurs and tibiae cultured for 6-7 days in complete RPMI 1640 medium (Life Technologies) with 10% FBS, 100 U/ml penicillin, 100 μg/ml streptomycin, 2 mM L-glutamine and 20 ng/ml MCSF (PeproTech). Primary cultures of macrophage were then plated at 1.2×10^5 cells per well (3-4 wells for each condition) in 24-well tissue-culture plates on glass cover-slips overnight. Next, macrophages were either treated with 30 μg/ml GA (Copaxone®; TEVA Neuroscience), Brefeldin A (BFA; Sigma, 1X), or 10 μM Minocycline (Sigma) for the duration of 1, 3, or 24 h, or not treated (control group). Before addition of fibrillar amyloid-β1-42, the cells were chilled in a 4° C. ice bath for 5 min; immediately after addition of the preformed fibrillar amyloid-β1-42 (100 nM), the plates were centrifuged at 515g in 25° C. followed by incubation at 37° C. for 30 or 60 min. The cells were then rinsed with amyloid-β-free medium to remove non-incorporated amyloid-β and later washed twice with PBS. Methanol (99.8%) at −20° C. for 20 min or 4% paraformaldehyde at room temperature for 12 min was used for fixation of the cells followed by repeated washes with PBS. […] The fluorescent signal and its total area were determined and quantified by the conversion of individual images to greyscale and standardizing to baseline using histogram-based thresholds with NIH ImageJ software. […]

[2] = tested on: iNOS; assay: iNOS expression in macrophages by quantitative ICC; conditions: 24 hours treatment, then fAβ1-42 for 30 min; quantitative ICC (FIG. 16D)
Method: To test amyloid-β phagocytosis by macrophage, in repeated experiments monocytes were isolated from the bone marrow of wild-type mice (n=18 mice) and differentiated into macro-phage by 7-day cultivation in complete RPMI-1640 medium (#21870; Life Technologies) with 10% serum and 20 ng/ml MCSF (#315-02; PeproTech). Bone marrow-derived macrophages (MΦBM) were generated from femurs and tibiae cultured for 6-7 days in complete RPMI 1640 medium (Life Technologies) with 10% FBS, 100 U/ml penicillin, 100 μg/ml streptomycin, 2 mM L-glutamine and 20 ng/ml MCSF (PeproTech). Primary cultures of macrophage were then plated at 1.2×10^5 cells per well (3-4 wells for each condition) in 24-well tissue-culture plates on glass cover-slips overnight. […] The fluorescent signal and its total area were determined and quantified by the conversion of individual images to greyscale and standardizing to baseline using histogram-based thresholds with NIH ImageJ software. […]
The expression of inducible nitric oxide synthase (iNOS), a hallmark of the proinflammatory M1 macrophage phenotype, in different treatment groups was assessed next (FIG. 16C-16D). […] Quantitative ICC assays confirmed a significant ˜1.3-fold increase in iNOS expression by minocycline-treated macrophages, and a substantial 48% reduction in Aβ^1-42 phagocytosis. […]

[3] = tested on: primary cortical neurons (CN); assay: Synaptic toxicity of Aβ1-42 assemblies in primary cortical neurons; conditions: for reduction in co-localized VGluT1/PSD95+ puncta number: 250 nM Aβ assemblies, 12 hours, vs CN in medium alone (FIG. 1D); for decrease of co-localized VGluT1/PSD95+ puncta synaptic number: overnight exposure (FIG. 2E)
Method: Initially, synaptic toxicity induced by stable, structurally defined fAβ1-42 and oAβ1-42 forms in primary cortical neurons (CN) was tested. Neurons were incubated for 12 hours with 250 nM of Aβ assemblies or with medium only (vehicle) during day 8 of culture. An extensive loss of pre- and post-synaptic (VGluT1 & PSD-95, respectively) area and number, induced by both f/oAβ1-42 forms, was clearly detected (FIG. 1A-C). Synaptic density quantification indicated a significant 50% reduction in co-localized VGluT1/PSD95^+ puncta number following fAβ1-42. Moreover, we detected a 70% decrease in puncta number by oAβ1-42 when compared with CN in medium alone (FIG. 1D; p<0.0001). […] Next, Aβ-induced neuritic retraction was assessed. CN were immunolabeled with anti-Tuj1 and the total neuritic length per neuron was precisely quantified (FIG. 2A-D). Overnight incubation of f/oAβ1-42 led to a massive neuritic retraction compared with control CN group (FIG. 2B vs. 2A). Whether untreated- and GA-treated BM-derived MΦ (CD68^+ cells) could prevent synaptic and neuritic loss was tested next. Primary CN and MΦ were co-cultured for 48 h and introduced Aβ1-42 forms during the last 12 hours of co-culture. […] Quantitative analysis of co-localized VGluT1/PSD95^+ puncta synaptic number confirmed decreases of 32% and 65% after overnight exposure to fAβ1-42 or oAβ1-42, respectively (FIG. 2E). […] The in vivo effects of Aβ accumulation on synaptopathy and possible synaptic rescue by GA immunization or grafted BM-CD115^+ Mo was assessed. Pre- and post-synaptic alterations in coronal brain sections of 13m old AD^+(ADtg) mice that received these immune-modulation interventions were quantified (FIG. 3A-D). High magnification z-stack images obtained from 19 predefined areas in hippocampus and entorhinal cortex were captured in respective Bregma regions (FIG. 3A-D).
P1 neurons are prepared as previously reported. Briefly, cortical neurons (CN) are obtained from 1 day old neonatal mice, dissociated, resuspended and plated in 24-well culture plate at 5×10^4/ml cells. BM-MΦ are obtained as described herein. In short, mononuclear enriched BM-derived cells are isolated from C57BL/6 mice and differentiated into MΦ for 7 days. […] Cultures are processed for quantification of synaptic density and neuritic length. […] Microphotographs are shot using a Carl Zeiss ApoTome-equipped Axio Imager ZI fluorescence microscope. Synaptic puncta number and synaptic immunoreactive area are quantified with Puncta Analyzer. Total neurite length is measured using NeuriteTracer. At least 3 coverslips, 36 images and 150 neurons for each condition are analyzed. Average puncta number, synaptic area per image or per neuron will be calculated. […] In brief, on day 9 of culture, spontaneous network activity of CN is recorded for 60 min to gain baseline. […]

Molecule | reduction in Aβ1-42 phagocytosis [1] [%] | increase in iNOS expression [2] [fold] | reduction in co-localized VGluT1/PSD95+ puncta number [3] [%] | decrease of co-localized VGluT1/PSD95+ puncta synaptic number [3] [%]
CN(C)c1ccc(O)c2c1C[C@H]1C[C@H]3[C@H](N(C)C)C(O)=C(C(N)=O)C(=O)[C@@]3(O)C(O)=C1C2=O [minocycline, Minocycline] | 48 | ~1.3 | – | –
fAβ1-42: pre-formed fibrils of amyloid-β1-42 peptide | – | – | 50 | 32
oAβ1-42: stabilized oligomeric amyloid-β1-42 assemblies | – | – | 70 | 65
